Data from patent US8809348B2, “6-arylmethyl substituted pyrazolo[3,4-d]pyrimidines” (Boehringer Ingelheim International GmbH, priority 2003, dated 2014).
pIC50: −log10 of the molar value. Structures can show the parent of a compound that is named as a salt.

Columns and labels:
[1] = target: T1, PDE9A (Homo sapiens, UniProt O76083); settings: concentrations of up to 100 μM; cited from earlier work
[2] = target: T1, PDE9A; assay: PDE inhibition: recombinant PDE9A scintillation proximity assay; assay type: biochemical; parameters: made in house; host or cells: Sf9 cells (pFASTBAC baculovirus expression system); settings: inhibiting effect on PDE9A, recombinant enzyme expressed in Sf9 cells, [8-3H]cGMP substrate
Text: Recombinant PDE1C (GenBank/EMBL Accession Number: NM_005020, Loughney et al. J. Biol. Chem. 1996 271, 796-806), PDE2A (GenBank/EMBL Accession Number: NM_002599, Rosman et al. Gene 1997 191, 89-95), PDE3B (GenBank/EMBL Accession Number: NM_000922, Miki et al. Genomics 1996, 36, 476-485), PDE4B (GenBank/EMBL Accession Number: NM_002600, Obernolte et al. Gene. 1993, 129, 239-247), PDE5A (GenBank/EMBL Accession Number: NM_001083, Loughney et al. Gene 1998, 216, 139-147), PDE7B (GenBank/EMBL Accession Number: NM_018945, Hetman et al. Proc. Natl. Acad. Sci. U.S.A. 2000, 97, 472-476), PDE8A (GenBank/EMBL Accession Number: AF 056490, Fisher et al. Biochem. Biophys. Res. Commun. 1998 246, 570-577), PDE9A (Fisher et al., J. Biol. Chem., 1998, 273 (25): 15559-15564), E10A (GenBank/EMBL Accession Number: NM_06661, Fujishige et al. J Biol Chem. 1999, 274, 18438-45), PDE11A (GenBank/EMBL Accession Number: NM_016953, Fawcett et al. Proc. Natl. Acad. Sci. 2000, 97, 3702-3707) were expressed in Sf9 cells with the aid of the pFASTBAC baculovirus expression system (GibcoBRL).
The test substances are dissolved in 100% DMSO and serially diluted to determine their in vitro effect on PDE 9A. Typically, serial dilutions from 200 μM to 1.6 μM are prepared (resulting final concentrations in the assay: 4 μM to 0.032 μM). 2 μL portions of the diluted substance solutions are introduced into the wells of microtiter plates (Isoplate; Wallac Inc., Atlanta, Ga.). Then 50 μL of a dilution of the PDE9A preparation described above are added. The dilution of the PDE9A preparation is chosen so that less than 70% of the substrate is converted during the subsequent incubation (typical dilution: 1:10000; dilution buffer: 50 mM Tris/HCl pH 7.5, 8.3 mM MgCl2, 1.7 mM EDTA, 0.2% BSA). The substrate, [8-^3H] guanosine 3′,5′-cyclic phosphate (1 μCi/μL; Amersham Pharmacia Biotech., Piscataway, N.J.) is diluted 1:2000 with assay buffer (50 mM Tris/HCl pH 7.5, 8.3 mM MgCl2, 1.7 mM EDTA) to a concentration of 0.0005 μCi/μL. The enzyme reaction is finally started by adding 50 μL (0.025 μCi) of the diluted substrate. The assay mixtures are incubated at room temperature for 60 min and the reaction is stopped by adding 25 μl of a PDE9A inhibitor (e.g. the inhibitor from preparation example 1, final concentration 10 μM) dissolved in assay buffer. Immediately thereafter, 25 μL of a suspension containing 18 mg/mL Yttrium Scintillation Proximity Beads (Amersham Pharmacia Biotech., Piscataway, N.J.) are added. […] The plates are then measured for 30 s per well in a Microbeta scintillation counter (Wallac Inc., Atlanta, Ga.). IC50 values are determined from the graphical plot of the substance concentration versus the percentage inhibition. […]

[3] = target: T2, Murine PDE9A (Mus musculus, UniProt O70628); settings: concentrations below 200 μM; cited from earlier work
T2 sequence (O70628 1-534): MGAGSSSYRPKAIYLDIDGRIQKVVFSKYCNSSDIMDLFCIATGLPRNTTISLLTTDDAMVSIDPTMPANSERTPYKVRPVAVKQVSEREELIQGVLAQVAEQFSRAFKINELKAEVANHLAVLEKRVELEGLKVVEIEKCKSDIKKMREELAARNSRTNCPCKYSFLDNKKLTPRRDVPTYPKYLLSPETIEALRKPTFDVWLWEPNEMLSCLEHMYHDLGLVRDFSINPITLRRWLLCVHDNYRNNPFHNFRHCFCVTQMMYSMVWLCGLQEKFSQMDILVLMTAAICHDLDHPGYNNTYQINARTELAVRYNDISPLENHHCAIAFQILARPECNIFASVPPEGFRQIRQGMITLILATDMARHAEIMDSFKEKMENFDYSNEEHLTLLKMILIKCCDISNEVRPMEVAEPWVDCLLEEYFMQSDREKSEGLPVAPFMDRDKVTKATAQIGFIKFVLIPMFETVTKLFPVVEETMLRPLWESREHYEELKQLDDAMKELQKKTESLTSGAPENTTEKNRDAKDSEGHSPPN

T1 sequence (O76083 whole entry): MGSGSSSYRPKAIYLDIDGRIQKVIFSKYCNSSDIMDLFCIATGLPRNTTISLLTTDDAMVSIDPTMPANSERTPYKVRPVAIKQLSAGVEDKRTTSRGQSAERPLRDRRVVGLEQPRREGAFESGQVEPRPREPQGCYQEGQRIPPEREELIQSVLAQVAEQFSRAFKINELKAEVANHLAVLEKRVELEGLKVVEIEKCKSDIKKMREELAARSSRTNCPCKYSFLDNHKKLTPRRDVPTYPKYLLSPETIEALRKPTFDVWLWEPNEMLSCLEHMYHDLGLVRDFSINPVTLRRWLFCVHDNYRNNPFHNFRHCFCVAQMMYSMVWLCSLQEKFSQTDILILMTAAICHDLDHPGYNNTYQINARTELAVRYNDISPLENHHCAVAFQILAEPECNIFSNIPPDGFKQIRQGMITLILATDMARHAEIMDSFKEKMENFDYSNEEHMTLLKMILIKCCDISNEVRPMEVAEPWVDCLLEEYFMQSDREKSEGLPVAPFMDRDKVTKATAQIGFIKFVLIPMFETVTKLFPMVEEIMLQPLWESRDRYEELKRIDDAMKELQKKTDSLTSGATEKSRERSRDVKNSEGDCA

O=c1[nH]c(Cc2cccc(Cl)c2)nc2c1cnn2-c1ccccc1F (as salt: sodium) [Example 20, 6-(3-Chlorobenzyl)-1-(2-fluorophenyl)-1,5-dihydro-4H-pyrazolo[3,4-d]pyrimidin-4-one]
melting point: 197 °C

CCOC(=O)C1=C[C@]2(CC)CCCN3CCc4c(n1c1ccccc41)[C@@H]32 [vinpocetine]
inhibition on the isolated enzyme [1]: no inhibition

COc1ccc(C2CNC(=O)C2)cc1OC1CCCC1 (stereo not drawn) [rolipram]
inhibition on the isolated enzyme [1]: no inhibition

CCc1ccccc1-n1ncc2c(=O)[nH]c(Cc3cccc(Cl)c3)nc21 (as salt: sodium) [Example 18, 6-(3-Chlorobenzyl)-1-(2-ethylphenyl)-1,5-dihydro-4H-pyrazolo[3,4-d]pyrimidin-4-one]
melting point: 208 °C

O=c1[nH]c(Cc2cccc(Cl)c2)nc2c1cnn2-c1ccccn1 (as salt: sodium) [Example 22, 6-(3-Chlorobenzyl)-1-(2-pyridinyl)-1,5-dihydro-4H-pyrazolo[3,4-d]pyrimidin-4-one]
melting point: 230 °C

OCCN(CCO)c1nc(N2CCCCC2)c2nc(N(CCO)CCO)nc(N3CCCCC3)c2n1 [dipyridamole]
inhibition on the isolated enzyme [1]: no inhibition

Cc1ccccc1-n1ncc2c(=O)[nH]c(Cc3ccccc3Br)nc21 [Example 9, 6-(2-Bromobenzyl)-1-(2-methylphenyl)-1,5-dihydropyrazolo[3,4-d]pyrimidin-4-one]
pIC50 [2]: > 7.52

O=c1[nH]c(Cc2cccc(Cl)c2)nc2c1cnn2-c1ccccc1Cl [Example 21, 6-(3-Chlorobenzyl)-1-(2-chlorophenyl)-1,5-dihydro-4H-pyrazolo[3,4-d]pyrimidin-4-one]
pIC50 [2]: > 7.52

Cc1cccc(-n2ncc3c(=O)[nH]c(Cc4cccc(Cl)c4)nc32)c1C [Example 2, 6-(3-Chlorobenzyl)-1-(2,3-dimethylphenyl)-1,5-dihydropyrazolo[3,4-d]pyrimidin-4-one]
pIC50 [2]: 7.30

Cc1ccccc1-n1ncc2c(=O)[nH]c(Cc3cccc(Cl)c3)nc21 (as salt: sodium) [Example 16, 6-(3-Chlorobenzyl)-1-(2-methylphenyl)-1,5-dihydro-4H-pyrazolo[3,4-d]pyrimidin-4-one]
melting point: 215 °C

Cc1ccccc1-n1ncc2c(=O)[nH]c(Cc3ccccn3)nc21 (as salt: sodium) [Example 17, 1-(2-Methylphenyl)-6-(2-pyridinylmethyl)-1,5-dihydro-4H-pyrazolo[3,4-d]pyrimidin-4-one]
melting point: 162 °C

CC(C)Cn1c(=O)n(C)c(=O)c2[nH]cnc21 [IBMX]
inhibition on the isolated enzyme [1]: no inhibition | inhibition of murine PDE9A [3]: not inhibited

O=c1[nH]c(Cc2cccc(Cl)c2)nc2c1cnn2-c1ccccc1C(F)(F)F (as salt: sodium) [Example 19, 6-(3-Chlorobenzyl)-1-(2-trifluoromethylphenyl)-1,5-dihydro-4H-pyrazolo[3,4-d]pyrimidin-4-one]
melting point: 152 °C

O=c1[nH]c(Cc2cccc(Cl)c2)nc2c1cnn2-c1c(Cl)cccc1Cl [Example 4, 6-(3-Chlorobenzyl)-1-(2,6-dichlorophenyl)-1,5-dihydropyrazolo[3,4-d]pyrimidin-4-one]
pIC50 [2]: 7.19

COc1ccccc1-n1ncc2c(=O)[nH]c(Cc3cccc(Cl)c3)nc21 (as salt: sodium) [Example 23, 6-(3-Chlorobenzyl)-1-(2-methoxyphenyl)-1,5-dihydro-4H-pyrazolo[3,4-d]pyrimidin-4-one]
melting point: 196 °C

CC(=O)Nc1ccc(-c2c[nH]c(=O)cn2)cc1 [SKF94120]
inhibition on the isolated enzyme [1]: no inhibition

O=c1[nH]c(Cc2cccc(Cl)c2)nc2c1cnn2-c1ccccc1Cl (as salt: sodium) [Example 21, 6-(3-Chlorobenzyl)-1-(2-chlorophenyl)-1,5-dihydro-4H-pyrazolo[3,4-d]pyrimidin-4-one]
melting point: 188 °C
